Assay results: patent US7214663B2, “Tripeptide prodrug compounds” (Medarex, Inc., priority 2001, dated 2007)
Non-standard residues stand in square brackets, D forms with d. Residues, ends and D or L forms follow the SMILES beside them. *: point of attachment. Daunorubicin = COc1cccc2c1C(=O)c1c(O)c3c(c(O)c1C2=O)C[C@@](O)(C(C)=O)C[C@@H]3O[C@H]1C[C@H](N*)[C@H](O)[C@H](C)O1; Sta = CC(C)C[C@H](N)[C@@H](O)CC(=O)O; pGlu = O=C1CC[C@@H](C(=O)O)N1; Isovaleryl = CC(C)CC(=O)*

How the values were obtained:
carcinoma cell trouase = assay: Inhibitor profile of carcinoma cell trouase; format: biochemical, human
[1] = test system: HeLa cell anion exchange fraction (F1), trouase; assay: Relative cleavage by HeLa cell anion exchange fraction (F1) versus Suc-βAla-Leu-Ala-Leu standard; format: biochemical, human; conditions: 2 hr at 37° C., 12.5 μg/mL, HeLa F1; relative to Suc-βAla-Leu-Ala-Leu-(Dox or Dnr) standard
Experimental: Thirty billion commercially produced HeLa Cells (human cervical carcinoma, Computer Cell Culture Ceizter, Seneffe, Belgium) were homogenized with a sonicator and with a Dounce homogenizer in 108 mL of aqueous lysis solution. The lysis solution contained 0.02% w/v Triton X-100, 0.04% w/v sodium azide, and a cocktail of protease inhibitors (2 tablets/50 mL Complete™, EDTA-free tablets, Roche Molecular Biochemicals). The cell homogenate was centrifuged 30 minutes at 4° C. at 5000×g and the pellet was homogenized in a second 108 mL of lysis solution using a Dounce homogenizer and centrifuged as before. The supernatants were combined and centrifuged for 90 min at 145,000×g at 4° C.
A portion of the ultracentrifugation supernatant was diluted 2-fold with a 20 mM triethanolamine-HCl pH 7.2 buffer containing 0.01% (w/v) Triton X-100 and 0.02% (w/v) sodium azide (equilibration buffer). Thirty mL of the resulting solution, corresponding to approximately 180 mg of protein, was loaded at 4° C. on a 2.6×9.4 cm Source™ 15Q (Amersham Pharmacia Biotech) low pressure anion exchange chromatography column (1 ml/minute). The column was then washed with 250 ml of the equilibration buffer at a flow rate of 1 mL/minute. Proteins were eluted in a NaCl linear concentration gradient (0–0.5 M in the equilibration buffer, total volume of the gradient was 1000 ml) at a flow rate of 3 ml/minute. Two-minute fractions were collected and used for enzyme activity determination using βAla-Leu-Ala-Leu-Dox as the substrate. Its transformation into Ala-Leu-Dox was quantified by reverse phase high performance liquid chromatography utilizing fluorescence detection of the anthracycline moiety. The fractions containing the highest activity levels were pooled (fractions #43–46; ˜0.13 M NaCl), supplemented with protease inhibitors (Complete™, EDTA-free tablets, Roche Molecular Biochemicals), and stored as aliquots at −80° C.
Test compounds were incubated for 2 hr at 37° C. at a concentration of 12.5 μg/mL with HeLa cell anion exchange fraction (F1), as prepared in Example 1(c). Following incubation, three volumes of acetonitrile were added to stop the reaction and remove protein from the mixture. The sample was centrifuged at 18,000 g for 5 minutes and 100 μL of supernatant was mixed with 300 μL of water prior to analysis by HPLC. For HPLC analysis 50 μL of sample was injected on a 4.6×50 mm 2μ TSK Super-ODS chromatography column at 40° C. and eluted with a 3 minute linear gradient from 26% to 68% acetonitrile in aqueous 20 mM ammonium acetate pH 4.5 buffer at 2 mL/min. Detection was by fluorescence using an excitation wavelength of 235 nm and an emission wavelength of 560 nm.
the amount of cleavage of each test compound was compared to the amount of a standard Suc-βAla-Leu-Ala-Leu-therapeutic agent conjugate cleaved by F1 under the same conditions. The therapeutic agent in the standard (Dox or Dnr) was the same as in the test compound. Table 3 provides the relative cleavage rates of several tripeptide prodrugs.

[2] = Metabolism and clearance of Suc-Met-Ala-Leu-Dox in mice (plasma, urine); format: in vivo, mouse
Experimental: Plasma samples were obtained at 1 or 4 hours, and urine was collected at 2 and 24 hours post administration. Levels of the prodrug and metabolites were measured by LC-MS with UV detection of doxorubicin.

[3] = Metabolism and clearance of Suc-Leu-Ala-Leu-Dox in mice (plasma, urine); format: in vivo, mouse
Experimental: Plasma samples of 100 μl were transferred to microcentrifuge tubes (1.5 mL) and an internal standard of daunorubicin (20 μL at 0.5 mg/ml) was added together with acetonitrile (400 μl). The tubes were capped and briefly vortexed followed by centrifugation at 14,000 rpm. 420 μl from each tube was removed and dried in vacuo. Each sample was reconstituted in 65 μl 20 mM aqueous ammonium formate (AF) pH 4.5 buffer containing acetonitrile (20%) prior to analysis by reverse phase liquid chromatography in combination with tandem mass spectrometry (LC MS/MS).
Urine was collected at 2 and 24 hours post administration from pairs of mice in metabolic cages. Urine samples were diluted with AF buffer containing acetonitrile (20%) to give a target analyte concentration within the practical range of the LC MS/MS assay. 30 μl of each diluted sample was placed in a micro centrifuge tube (1.5 ml) and an internal standard of daunorubicin (20 μL at 0.5 mg/ml) was added together with 50 μl of AF buffer containing acetonitrile (20%). Each sample was then analyzed by LC MS/MS.
An Agilent HP1100 HPLC with DAD detector and Chemstation software was coupled to a PE Sciex API 365 mass spectrometer with an electrospray ion source. HPLC was performed on a TSK-Gel Super ODS, […], 4.6×50 mm (TosoHaas) reversed phase column equipped with a […] C18 guard disc (Higgins Analytical) and stainless steel frit (Upchurch Scientific). Chromatography was performed at room temperature. The flow rate was 0.5 ml/min. Injection volume was 50 μl. Gradient elution was performed using a mobile phase of AF buffer with increasing amounts of acetonitrile. The API 365 was operated at 365° C. in a multiple reaction monitoring mode, set to monitor specific analyte parent-daughter ion pairs. Integration of chromatograms was performed by MacQuan software (PE Sciex) and quantitation of each analyte obtained by comparison to previously obtained calibration curves. Daunorubicin was used as an internal standard in all cases.

[4] = after single intravenous 120 mg/kg Suc-Met-Ala-Leu-Dox
[5] = after single intravenous 117 mg/kg Suc-Leu-Ala-Leu-Dox

Compound | inhibition of carcinoma cell trouase (carcinoma cell trouase) | Relative Cleavage % [1] | further results
CC(C)C[C@H](NC(=O)[C@H]1O[C@@H]1C(=O)O)C(=O)NCCCCN=C(N)N [Compound E64, E64] | not |  | 
CCC(C)C(NC(=O)CNC(=O)C(Cc1ccccc1)NC(=O)CCC(=O)O)C(=O)NC1CC(OC2CC(O)(C(C)=O)Cc3c(O)c4c(c(O)c32)C(=O)c2c(OC)cccc2C4=O)OC(C)C1O (stereo not drawn) [Suc-Phe-Gly-Ile-Dnr] |  | 54% | 
COc1cccc2c1C(=O)c1c(O)c3c(c(O)c1C2=O)CC(O)(C(C)=O)CC3OC1CC(NC(=O)C(CC(C)C)NC(=O)CNC(=O)C(Cc2ccccc2)NC(=O)CCC(=O)O)C(O)C(C)O1 (stereo not drawn) [Suc-Phe-Gly-Leu-Dnr] |  | 24% | 
CO[C@@H]1[C@H](OC(=O)/C=C/C=C/C=C/C=C/C(=O)O)CC[C@]2(CO2)[C@H]1[C@@]1(C)O[C@@H]1CC=C(C)C [fumagillin] | not |  | 
aprotinin | not |  | 
COc1cccc2c1C(=O)c1c(O)c3c(c(O)c1C2=O)CC(O)(C(C)=O)CC3OC1CC(NC(=O)C(CC(C)C)NC(=O)CNC(=O)C(CCSC)NC(=O)CCC(=O)O)C(O)C(C)O1 (stereo not drawn) [Suc-Met-Gly-Leu-Dnr] |  | 55% | 
CCCNC(=O)[C@H]1O[C@@H]1C(=O)N[C@H](C(=O)N1CCC[C@H]1C(=O)O)[C@@H](C)CC [CA074] | not |  | 
COc1cccc2c1C(=O)c1c(O)c3c(c(O)c1C2=O)CC(O)(C(C)=O)CC3OC1CC(NC(=O)C(CC(C)C)NC(=O)C(C)NC(=O)C(Cc2ccc(O)cc2)NC(=O)CCC(=O)O)C(O)C(C)O1 (stereo not drawn) [Suc-Tyr-Ala-Len-Dnr] |  | 77% | 
CC(C)CC(=O)N[C@H](C(=O)N[C@H](C(=O)N[C@@H](CC(C)C)[C@@H](O)CC(=O)N[C@@H](C)C(=O)N[C@@H](CC(C)C)[C@@H](O)CC(=O)O)C(C)C)C(C)C [pepstatin] (Isovaleryl-VV[Sta]A[Sta]-OH) | not |  | 
COc1cccc2c1C(=O)c1c(O)c3c(c(O)c1C2=O)CC(O)(C(C)=O)CC3OC1CC(NC(=O)C(Cc2ccccc2)NC(=O)CNC(=O)C(Cc2ccccc2)NC(=O)CCC(=O)O)C(O)C(C)O1 (stereo not drawn) [Suc-Phe-Gly-Phe-Dnr] |  | 12% | 
CCC(C)C(NC(=O)CNC(=O)C(CCSC)NC(=O)CCC(=O)O)C(=O)NC1CC(OC2CC(O)(C(C)=O)Cc3c(O)c4c(c(O)c32)C(=O)c2c(OC)cccc2C4=O)OC(C)C1O (stereo not drawn) [Suc-Met-Gly-Ile-Dnr] |  | 46% | 
[Zn+2] [Zn^2+] |  |  | inhibition of hydrolysis of Suc-βAla-Leu-Ala-Leu-Dox by HeLa cell Fraction 1 (carcinoma cell trouase; 100 μM): completely inhibits
COc1cccc2c1C(=O)c1c(O)c3c(c(O)c1C2=O)C[C@@](O)(C(C)=O)C[C@@H]3O[C@H]1C[C@H](NC(=O)[C@H](Cc2ccccc2)NC(=O)CNC(=O)[C@H](CCSC)NC(=O)CCC(=O)O)[C@H](O)[C@H](C)O1 [Suc-Met-Gly-Phe-Dnr] |  | 29% | 
COc1cccc2c1C(=O)c1c(O)c3c(c(O)c1C2=O)C[C@@](O)(C(C)=O)C[C@@H]3O[C@H]1C[C@H](NC(=O)[C@H](CC(C)C)NC(=O)[C@H](C)NC(=O)[C@H](CC(C)C)NC(=O)[C@@H]2CCC(=O)N2)[C@H](O)[C@H](C)O1 [Pyg-Leu-Ala-Leu-Dnr] ([pGlu]LAL-Daunorubicin) |  | 76% | 
COc1cccc2c1C(=O)c1c(O)c3c(c(O)c1C2=O)C[C@@](O)(C(=O)CO)C[C@@H]3O[C@H]1C[C@H](NC(=O)[C@@H](N)CC(C)C)[C@H](O)[C@H](C)O1 [Leu-Dox] |  |  | Plasma 1 hr, percent of administered dose [2, 4]: 0.022%; Plasma 4 hr, percent of administered dose [2, 4]: 0.001%; Urine 2 hr, percent of administered dose [2, 4]: 7.28%; Urine 24 hr, percent of administered dose [2, 4]: 1.25%; plasma level, times higher than Ala-Leu-Dox ([2]; at both 1 and 4 hours after 120 mg/kg Suc-Met-Ala-Leu-Dox): about 10 times; Plasma 1 hr, percent of administered dose [3, 5]: 0.019%; Plasma 4 hr, percent of administered dose [3, 5]: 0.001%; Urine 2 hr, percent of administered dose [3, 5]: 1.53%; Urine 24 hr, percent of administered dose [3, 5]: 0.45%
c1cnc2c(c1)ccc1cccnc12 [1,10-phenanthroline] | inhibited |  | 
COc1cccc2c1C(=O)c1c(O)c3c(c(O)c1C2=O)C[C@@](O)(C(C)=O)C[C@@H]3O[C@H]1C[C@H](NC(=O)[C@H](CC(C)C)NC(=O)[C@H](C)NC(=O)[C@H](CC(C)C)NC(=O)CCC(=O)O)[C@H](O)[C@H](C)O1 [Suc-Leu-Ala-Leu-Dnr] |  | 76% | 
COc1cccc2c1C(=O)c1c(O)c3c(c(O)c1C2=O)CC(O)(C(C)=O)CC3OC1CC(NC(=O)C(CC(C)C)NC(=O)C(C)NC(=O)C(CCSC)NC(=O)CCC(=O)O)C(O)C(C)O1 (stereo not drawn) [Suc-Met-Ala-Leu-Dnr] |  | 69% | 
CCC(C)C(NC(=O)C(C)NC(=O)C(Cc1ccc(O)cc1)NC(=O)CCC(=O)O)C(=O)NC1CC(OC2CC(O)(C(C)=O)Cc3c(O)c4c(c(O)c32)C(=O)c2c(OC)cccc2C4=O)OC(C)C1O (stereo not drawn) [Suc-Tyr-Ala-Ile-Dnr] |  | 25% | 
COc1cccc2c1C(=O)c1c(O)c3c(c(O)c1C2=O)C[C@@](O)(C(=O)CO)C[C@@H]3O[C@H]1C[C@H](NC(=O)[C@H](CC(C)C)NC(=O)[C@H](C)N)[C@H](O)[C@H](C)O1 [Ala-Leu-Dox] |  |  | Plasma 1 hr, percent of administered dose ([2]; mouse, in vivo, iv, 120 mg/kg): 0.002%; Plasma 4 hr, percent of administered dose ([2]; mouse, in vivo, iv, 120 mg/kg): 0.000%; Urine 2 hr, percent of administered dose ([2]; mouse, in vivo, iv, 120 mg/kg): 0.16%; Urine 24 hr, percent of administered dose ([2]; mouse, in vivo, iv, 120 mg/kg): 0.02%; Plasma 1 hr, percent of administered dose ([3]; mouse, in vivo, iv, 117 mg/kg): 0.006%; Plasma 4 hr, percent of administered dose ([3]; mouse, in vivo, iv, 117 mg/kg): 0.000%; Urine 2 hr, percent of administered dose ([3]; mouse, in vivo, iv, 117 mg/kg): 0.02%; Urine 24 hr, percent of administered dose ([3]; mouse, in vivo, iv, 117 mg/kg): 0.01%
aminoethylbenzene-sufonate | not |  | 
CC(=O)N[C@@H](CC(C)C)C(=O)N[C@@H](CC(C)C)C(=O)N[C@H](C=O)CCCNC(=N)N [leupeptin] | not |  | 
CCCCC(NC(=O)CCC(=O)O)C(=O)NCC(=O)NC(Cc1ccccc1)C(=O)NC1CC(OC2CC(O)(C(C)=O)Cc3c(O)c4c(c(O)c32)C(=O)c2c(OC)cccc2C4=O)OC(C)C1O (stereo not drawn) [Suc-Nle-Gly-Phe-Dnr] |  | 17% | 
